According to patent publication US9518061B2, “Substituted pyrazolylpyrazole derivative and use of same as herbicide” (KYOYU AGRI CO., LTD., priority 2013, dated 2016):

What was measured:
Type in all cases: in vivo
Chenopodium album [1] = experiment: Farming soil treatment test; settings: soil surface spray prior to weed growth, 30 days
Protocol: (§1) 2. Farming Soil Treatment Test
(§2) Field soil was filled into a 1/6000 are pot followed by seeding with Digitaria ciliaris, Chenopodium album and Amaranthus retroflexus and covering with soil.
(§3) Wettable powder of compounds of formula (D shown in Table 1 prepared in compliance with the preparation examples were diluted with water to the prescribed amount of chemical and uniformly sprayed onto each soil surface layer using 10 liters of sprayed water per are prior to weed growth following seeding.
(§4) After treating for 30 days in a glass greenhouse at an average atmospheric temperature of 30° C., the herbicidal efficacy thereof was investigated.
(§5) Evaluation of herbicidal efficacy was carried out in the same manner as the above-mentioned Test Example 1.

Digitaria ciliaris [2] = experiment: Farming soil treatment test; settings: soil surface spray prior to weed growth, 30 days
Protocol: as §1, §2, §3, §4, §5

Amaranthus retroflexus [3] = experiment: Farming soil treatment test; settings: soil surface spray prior to weed growth, 30 days
Protocol: as §1, §2, §3, §4, §5

Rice plants = experiment: Paddy herbicidal activity test, phytotoxicity to transplanted rice; settings: rice transplanted in 2.0 leaf stage, 30 days
Protocol: (§6) 1. Paddy Herbicidal Activity Test
(§7) Rice paddy soil was filled into a 1/10000 are pot followed by the addition of suitable amounts of water and chemical fertilizer, kneading, seeding with Echinochloa crus-galli, Monochoria vaginalis and Scirpus juncoides and maintaining in an irrigated state at a water depth of 3 cm.
(§8) Wettable powder of Target Compound (I) shown in Table 1 prepared in compliance with the preparation examples were diluted with a suitable amount of water, rice plants in the 2.0 leaf stage were transplanted during 3.5 leaf stage of Echinochloa crus-galli, and treated by dropping in chemical in the prescribed amount per are using a pipette.
as §4
(§9) Evaluation of herbicidal efficacy was carried out by comparing growth inhibition rate (%) with an untreated group, while evaluation of phytotoxicity was carried out by comparing growth inhibition rate (%) with the state of a complete eradication group, and were evaluated at 11 levels indicated below.

Chenopodium album [4] = experiment: Weed foliar treatment test; settings: foliar spray, 3 weeks
Protocol: (§10) 3. Weed Foliar Treatment Test
(§11) Soil was filled into a 1/6000 are pot followed by seeding with Digitaria ciliaris, Chenopodium album and Amaranthus retroflexus, covering with soil, and cultivating in a glass greenhouse at an average atmospheric temperature of 25° C.
(§12) Wettable powder of Target Compound (I) shown in Table 1 prepared in compliance with the preparation examples were diluted with water to the prescribed amount of chemical and uniformly sprayed onto the weeds using 15 liters of sprayed water per are when Digitaria ciliaris had grown to the 1.0 to 2.0 leaf stage.
(§13) After treating for 3 weeks in a glass greenhouse at an average atmospheric temperature of 25° C., the herbicidal efficacy thereof was investigated.
as §5

Digitaria ciliaris [5] = experiment: Weed foliar treatment test; settings: foliar spray at 1.0 to 2.0 leaf stage of Digitaria ciliaris, 3 weeks
Protocol: as §10, §11, §12, §13, §5

Amaranthus retroflexus [6] = experiment: Weed foliar treatment test; settings: foliar spray, 3 weeks
Protocol: as §10, §11, §12, §13, §5

Monochoria vaginalis = experiment: Paddy herbicidal activity test; settings: irrigated paddy pot, 30 days
Protocol: as §6, §7, §8, §4, §9

Echinochloa crus-galli = experiment: Paddy herbicidal activity test; settings: irrigated paddy pot, treated at 3.5 leaf stage of Echinochloa crus-galli, 30 days
Protocol: as §6, §7, §8, §4, §9

Scirpus juncoides = experiment: Paddy herbicidal activity test; settings: irrigated paddy pot, 30 days
Protocol: as §6, §7, §8, §4, §9

What does the source list for `CN(C(=O)C(F)(F)F)c1c(C#N)cnn1-c1nn2c(c1Cl)CCCC2` [Control agent 4.237]?
herbicidal efficacy (growth inhibition rate level) Chenopodium album (Chenopodium album [1]; 5g a.i./10a): 4 (40% to less than 50%); herbicidal efficacy (growth inhibition rate level) Chenopodium album (Chenopodium album [1]; 10g a.i./10a): 4 (40% to less than 50%); herbicidal efficacy (growth inhibition rate level) Digitaria ciliaris (Digitaria ciliaris [2]; 5g a.i./10a): 4 (40% to less than 50%); herbicidal efficacy (growth inhibition rate level) Digitaria ciliaris (Digitaria ciliaris [2]; 10g a.i./10a): 5 (50% to less than 60%); herbicidal efficacy (growth inhibition rate level) Amaranthus retroflexus (Amaranthus retroflexus [3]; 5g a.i./10a): 5 (50% to less than 60%); herbicidal efficacy (growth inhibition rate level) Amaranthus retroflexus (Amaranthus retroflexus [3]; 10g a.i./10a): 5 (50% to less than 60%); phytotoxicity (growth inhibition rate level) Rice plants (Rice plants; 1g a.i./10a): 1 (10% to less than 20%); phytotoxicity (growth inhibition rate level) Rice plants (Rice plants; 5g a.i./10a): 2 (20% to less than 30%); herbicidal efficacy (growth inhibition rate level) Chenopodium album (Chenopodium album [4]; 5g a.i./10a): 4 (40% to less than 50%); herbicidal efficacy (growth inhibition rate level) Chenopodium album (Chenopodium album [4]; 10g a.i./10a): 5 (50% to less than 60%); herbicidal efficacy (growth inhibition rate level) Digitaria ciliaris (Digitaria ciliaris [5]; 5g a.i./10a): 5 (50% to less than 60%); herbicidal efficacy (growth inhibition rate level) Digitaria ciliaris (Digitaria ciliaris [5]; 10g a.i./10a): 6 (60% to less than 70%); herbicidal efficacy (growth inhibition rate level) Amaranthus retroflexus (Amaranthus retroflexus [6]; 5g a.i./10a): 4 (40% to less than 50%); herbicidal efficacy (growth inhibition rate level) Amaranthus retroflexus (Amaranthus retroflexus [6]; 10g a.i./10a): 6 (60% to less than 70%); herbicidal efficacy (growth inhibition rate level) Monochoria vaginalis (Monochoria vaginalis; 1g a.i./10a): 2 (20% to less than 30%); herbicidal efficacy (growth inhibition rate level) Monochoria vaginalis (Monochoria vaginalis; 5g a.i./10a): 3 (30% to less than 40%); herbicidal efficacy (growth inhibition rate level) Echinochloa crus-galli (Echinochloa crus-galli; 1g a.i./10a): 1 (10% to less than 20%); herbicidal efficacy (growth inhibition rate level) Echinochloa crus-galli (Echinochloa crus-galli; 5g a.i./10a): 4 (40% to less than 50%); herbicidal efficacy (growth inhibition rate level) Scirpus juncoides (Scirpus juncoides; 1g a.i./10a): 2 (20% to less than 30%); herbicidal efficacy (growth inhibition rate level) Scirpus juncoides (Scirpus juncoides; 5g a.i./10a): 4 (40% to less than 50%)

Which results are given for `CCN(C(=O)C(F)(F)F)c1c(C#N)cnn1-c1nn2c(c1Cl)CCCC2` [Control agent 4.238]?
herbicidal efficacy (growth inhibition rate level) Chenopodium album (Chenopodium album [1]; 5g a.i./10a): 4 (40% to less than 50%); herbicidal efficacy (growth inhibition rate level) Chenopodium album (Chenopodium album [1]; 10g a.i./10a): 5 (50% to less than 60%); herbicidal efficacy (growth inhibition rate level) Digitaria ciliaris (Digitaria ciliaris [2]; 5g a.i./10a): 5 (50% to less than 60%); herbicidal efficacy (growth inhibition rate level) Digitaria ciliaris (Digitaria ciliaris [2]; 10g a.i./10a): 6 (60% to less than 70%); herbicidal efficacy (growth inhibition rate level) Amaranthus retroflexus (Amaranthus retroflexus [3]; 5g a.i./10a): 4 (40% to less than 50%); herbicidal efficacy (growth inhibition rate level) Amaranthus retroflexus (Amaranthus retroflexus [3]; 10g a.i./10a): 5 (50% to less than 60%); phytotoxicity (growth inhibition rate level) Rice plants (Rice plants; 1g a.i./10a): 2 (20% to less than 30%); phytotoxicity (growth inhibition rate level) Rice plants (Rice plants; 5g a.i./10a): 2 (20% to less than 30%); herbicidal efficacy (growth inhibition rate level) Chenopodium album (Chenopodium album [4]; 5g a.i./10a): 4 (40% to less than 50%); herbicidal efficacy (growth inhibition rate level) Chenopodium album (Chenopodium album [4]; 10g a.i./10a): 6 (60% to less than 70%); herbicidal efficacy (growth inhibition rate level) Digitaria ciliaris (Digitaria ciliaris [5]; 5g a.i./10a): 4 (40% to less than 50%); herbicidal efficacy (growth inhibition rate level) Digitaria ciliaris (Digitaria ciliaris [5]; 10g a.i./10a): 5 (50% to less than 60%); herbicidal efficacy (growth inhibition rate level) Amaranthus retroflexus (Amaranthus retroflexus [6]; 5g a.i./10a): 5 (50% to less than 60%); herbicidal efficacy (growth inhibition rate level) Amaranthus retroflexus (Amaranthus retroflexus [6]; 10g a.i./10a): 6 (60% to less than 70%); herbicidal efficacy (growth inhibition rate level) Monochoria vaginalis (Monochoria vaginalis; 1g a.i./10a): 0 (0 (exponent): 0% to less than 10% (growth inhibition rate)); herbicidal efficacy (growth inhibition rate level) Monochoria vaginalis (Monochoria vaginalis; 5g a.i./10a): 1 (10% to less than 20%); herbicidal efficacy (growth inhibition rate level) Echinochloa crus-galli (Echinochloa crus-galli; 1g a.i./10a): 2 (20% to less than 30%); herbicidal efficacy (growth inhibition rate level) Echinochloa crus-galli (Echinochloa crus-galli; 5g a.i./10a): 4 (40% to less than 50%); herbicidal efficacy (growth inhibition rate level) Scirpus juncoides (Scirpus juncoides; 1g a.i./10a): 2 (20% to less than 30%); herbicidal efficacy (growth inhibition rate level) Scirpus juncoides (Scirpus juncoides; 5g a.i./10a): 3 (30% to less than 40%)
